{"source": "patent US6284910A", "about": "“Farnesyl pyrophosphate analogs” (University of Kentucky Research Foundation, priority 1999, dated 2001)", "key": {"recombinant GGTase I": {"molecular_target": "T1, recombinant GGTase I (Rattus norvegicus, UniProt P53610+Q04631)", "T1 construct": "6xHis (N); made in house; host or cells: Sf9 insect cells (baculovirus)", "test": "Inhibition of CAAX GGTase I transfer of [^3 H]geranylgeranyl from [^3 H]GGPP to H-Ras-CVLL", "assay_type": "biochemical", "description": "The assay mixtures contained (in a final volume of 25 μl) various components as described in \"Experimental Procedures\". After incubation for 15 min at 37° C., the amount of [^3 H]prenyl group transferred to the appropriate protein substrate [H-Ras (CVLS) for FTase and H-Ras (CVLL) for CAAX GGTase] was measured by precipitation with ethanol-HCl. The assays contained 10 ng recombinant rat FTase, 5 μM H-Ras, and 0.6 μM [^3 H]FPP (33,000 dpm/pmol) or 100 ng recombinant rat CAAX GGTase, 5 μM H-Ras CVLL, and 1 μM [^3 H]GGPP (33,000 dpm/pmol) and the indicated concentration of unlabeled AGPP. […] Each value is the average of duplicate incubations and is representative of two separate experiments.\nUnless otherwise stated, each reaction contained the following components in a final volume of 25 μl: 50 mM Tris-HCl (pH 7.4), 5 mM dithiothreitol, 20 μM Zwittergent (3-14), 1 μM [^3 H]GGPP (33,000 dpm/pmol; American Radiochemical Co.), 5 μM p21^H-ras CVLL, 5 μM ZnCl2, 5 mM MgCl2, 100 ng recombinant CAAX GGTase-1, and the indicated amount of unlabeled AGPP. Following incubation at 37° C. for 15 min, the amount of [^3 H]geranylgeranyl transferred was measured by ethanol-HCl precipitation followed by filtration on glass fiber filters. A blank value was determined in parallel incubation mixtures containing no enzyme and was subtracted from each reaction.\nThe assays contained 10 ng recombinant rat FTase, 5 μM H-Ras, and 0.6 μM [^3 H]FPP (33,000 dpm/pmol) or 100 ng recombinant rat CAAX GGTase, 5 μM H-Ras CVLL, and 1 μM [^3 H]GGPP (33,000 dpm/pmol) and the indicated concentration of unlabeled AGPP."}, "squalene synthase": {"molecular_target": "T2, squalene synthase (Bos taurus, UniProt Q32KR6)", "T2 construct": "squalene synthase activity present in bovine brain microsome fractions; from tissue; host or cells: bovine brain microsomes (crude)", "T2 sequence (Q32KR6 1-417)": "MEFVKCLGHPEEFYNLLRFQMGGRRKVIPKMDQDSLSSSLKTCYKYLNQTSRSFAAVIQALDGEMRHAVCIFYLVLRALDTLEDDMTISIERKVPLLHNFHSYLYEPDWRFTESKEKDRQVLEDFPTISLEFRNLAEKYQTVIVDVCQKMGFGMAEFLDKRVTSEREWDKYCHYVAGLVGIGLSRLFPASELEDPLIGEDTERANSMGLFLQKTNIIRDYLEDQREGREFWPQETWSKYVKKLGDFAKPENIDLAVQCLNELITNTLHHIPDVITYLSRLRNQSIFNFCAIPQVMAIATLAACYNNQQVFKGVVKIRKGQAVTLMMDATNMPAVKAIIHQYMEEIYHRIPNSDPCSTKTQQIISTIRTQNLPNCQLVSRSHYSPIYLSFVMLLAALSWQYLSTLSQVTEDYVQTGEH", "test": "Inhibition of squalene synthase activity in bovine brain microsomes", "assay_type": "biochemical", "details": "0.05 mM [^3 H]FPP", "protocol": "FIG. 7. Inhibition of Squalene Synthase by AGPP. The initial rates of squalene synthase activity were determined from bovine brain microsomal preparations in the presence of the indicated concentration of unlabeled AGPP (filled squares) or unlabeled FPP (open triangles) under the in vitro conditions described in \"Experimental Procedures.\" Crude bovine brain microsomes and 0.05 mM [^3 H]FPP (105 cpm/pmol) and unlabeled AGPP and FPP were added at the indicated concentrations and incubated for 30 min. at 37° C. The reactions were terminated with 40% (wt/vol) KOH and 95% ethanol. Authentic carrier squalene (20 μg) was added and the reactions extracted with petroleum ether. The amount of labeled lipid formed was measured by scintillation counting. […]\nAssay for Squalene Synthase Activity--Initial rates of squalene synthase activity present in bovine brain microsome fractions were assayed as previously described (19) with minor modifications. […] The remaining sample was analyzed on Silica gel G 60 TLC plates by developing with hexane (33). […]\nFIG. 7 depicts inhibition of Squalene Synthase by AGPP. The initial rates of squalene synthase activity were determined from bovine brain microsomal preparations in the presence of the indicated concentration of unlabeled AGPP (filled squares) or unlabeled FPP (open triangles) (77). […] The amount of labeled lipid formed was measured by scintillation counting."}, "FTase": {"molecular_target": "FTase (Rattus norvegicus, UniProt Q02293+Q04631)", "test": "Continuous fluorescence assay: transfer of FPP and analogs to N-dansyl-GCVLS by FTase", "assay_type": "biochemical", "details": "excitation 340 nm, 505 nm", "from_the_text": "FIG. 8. Progress Curves for Transfer of FPP and Analog Pyrophosphates to Dansyl-GCVLS by FTase. The reaction is monitored for fluorescence intensity at 505 nm with excitation at 340 nm. (a) FPP, (b) AGPP, (c) 8-(pentafluoroaniline)geranyl pyrophosphate, (d) blank.\nContinuous Fluorescence Assay for Analog Transfer: An important requirement for these studies is the development of a rapid technique for evaluating whether FPP analogs that are efficiently and appropriately transferred to target substrates by FTase. The analogs were evaluated for their ability to be transferred by FTase to the pentapeptide N-dansyl-GCVLS in a continuous fluorescence assay. (See references 78, 79, infra). There is a time dependent increase in the fluorescence of the dansyl group due to the local increase in hydrophobicity as the adjacent cysteine residue is isoprenylated. […] (FIG. 8)."}, "GGTase I": {"test_system": "GGTase I", "test": "Transfer of [^3 H]AGPP by GGTase I to H-Ras-CVLL", "assay_type": "biochemical"}, "Xenopus laevis oocytes": {"test_system": "Xenopus laevis oocytes", "test": "Xenopus laevis oocyte maturation assay (GVBD) with oncogenic H-Ras in mevinolin-treated oocytes", "assay_type": "cell-based", "from_the_text": "Recently, a novel methodology involving the microinjection of known amounts of Ras into Xenopus oocytes has been described (see references 24, 45, infra), thereby permitting a quantitative structure-function analysis of H-Ras farnesyl-group for signal transduction in vivo. The approach makes use of enzymatic methods to attach structurally related farnesyl analogs onto the prenylation site of H-Ras combined with microinjection procedures to study their in vivo function. Oocytes are naturally arrested at the G2-M boundary of the first meiotic cell division. (See reference 80, infra). When microinjected with oncogenic H-Ras, oocytes reenter the cell cycle, which is monitored by germinal vesicle breakdown (GVBD) by the appearance of a white spot in the animal hemisphere. GVBD is accompanied by activation of the mitogen-activated protein kinase (MAPK) cascade. (See 81, 82, infra). […] (See references 24, 45, infra). These biochemical effects are strictly dependent on in vivo farnesylation of the injected H-Ras protein since mutation of the CaaX prenylation motif, blocking isoprenoid biosynthesis, and inhibition of FTase in oocytes all suppress these activities. (See references 83-85, infra). Thus, the system provides a method to study the in vivo role of prenylation by analyzing the ability of FPP analogues to rescue H-Ras biological functions in isoprenoid-depleted oocytes. […] Oocytes were isolated from X. laevis females and allowed to recover overnight. (See 24, 45, infra)."}}, "note": "Entries after “also recorded” stand apart in the source; their conditions may differ.", "data": [{"smiles": "C/C(=C\\COP(=O)(O)OP(=O)(O)O)CC/C=C(\\C)CNc1ccccc1", "note": "[AGPP, (E,E)-8-Aniline-3,7-dimethyl-2,6-octadiene pyrophosphate]", "values": [{"measurement": "IC50", "setting": "recombinant GGTase I; 1 μM [^3 H]GGPP, 5 μM H-Ras CVLL, 37° C., 15 min", "result": 31, "unit": "µM"}, {"measurement": "GGTase I activity remaining", "setting": "recombinant GGTase I; AGPP concentrations of greater than 100 μM, 15 min", "result": "approximately 20%"}, {"measurement": "selectivity: better inhibitor of FTase than GGTase I", "setting": "recombinant GGTase I; FTase vs GGTase I", "result": 50, "unit": "fold"}, {"measurement": "inhibition of squalene synthase, in words", "setting": "squalene synthase", "result": "does not Inhibit Squalene Synthase Activity; also recorded: far less potent in vitro inhibitor of squalene synthase activity than FPP; also recorded: far less potent in vitro inhibitor of squalene synthase activity than for FTase"}, {"measurement": "IC50", "setting": "squalene synthase; 37° C., 30 min", "result": 1000, "unit": "µM"}, {"measurement": "time-dependent increase in dansyl fluorescence / transfer to dansyl peptide, in words", "setting": "FTase", "result": "transferred efficiently"}, {"measurement": "time-dependent increase in dansyl fluorescence / transfer to dansyl peptide, in words", "setting": "FTase; listed as 1", "result": "Time-dependent increases in the fluorescence of the dansyl group"}, {"measurement": "transfer by GGTase I, in words", "setting": "GGTase I", "result": "transferred by GGTase I to H-Ras-CVLL with a low efficiency"}, {"measurement": "additional time necessary to achieve 50% maturation versus FPP", "setting": "Xenopus laevis oocytes; H-Ras and AGPP, mevinolin-treated oocytes, longer than for FPP", "result": "2 to 4", "unit": "h"}, {"measurement": "rescue of oncogenic H-Ras biological activity (oocyte maturation)", "setting": "Xenopus laevis oocytes; co-microinjected with oncogenic H-Ras, 50 μM mevinolin-treated oocytes", "result": "rescues the biological activity of oncogenic H-Ras in isoprenoid depleted oocytes with delayed maturation kinetics relative to FPP; also recorded: rescues the ability of H-Ras to induce oocyte maturation in mevinolin-treated cells"}, {"measurement": "effect when given without H-Ras", "setting": "Xenopus laevis oocytes; compound alone", "result": "neither FPP nor AGPP alone displayed any biological effect"}]}]}
